pIC50: −log10 of the molar value. Structures can show the parent of a compound that is named as a salt. Where two headings read alike, the source gives them in different places.
Columns and labels:
U2OS-Nuc cell line = assay: Live cell imaging, pilot experiment; assay type: cell-based, human; conditions: 10 µM, 1 h incubation
Procedure: U2OS cell line (ATCC, USA) was transduced with premade lentiviral particles (Vectalis-TaKaRa, Japan) with sequences that express fluorescent protein tag mCherry targeted to specific subcellular locations. All cell lines were prepared according to the vendor’s instructions. The U2OS-Nuc cell line was prepared by using rLV.EF1.mCherry-Nuc-9 (cat. n. 0023VCT), containing a NLS sequence that imports protein into the nucleus. The U2OS-ER cell line was transduced by rLV.EF1.mCherry-ER-9 (cat. n. 0025VCT), which contains a calreticulin signal sequence and a KDEL sequence that associates protein with the endoplasmic reticulum. The U2OS-GA cell line was transduced by rLV.EF1.mCherry-Golgi-9 (cat. n. 0022VCT), containing a human GT precursor, a protein localized in Golgi Apparatus. The U2OS-Mito cell line was prepared by using rLV.EF1.mCherry-Mito-9 (cat. n. 0024VCT), containing a mitochondrial targeting sequence.
U2OS cells with fluorescent fusion proteins (density 1.0 × 10^3 per well) were seeded into 384 CellCarrier plates (Perkin Elmer, Waltham, MA, USA) and pre-incubated for 24 h at 37 °C and 5% CO2. The attached cells were treated with tested compounds in concentration 10 µM for 1 h and subsequently rinsed with fresh media. The live-cell imaging was performed by Cell Voyager CV7000 (Yokogawa, Tokyo, Japan) spinning disc confocal microscopy system at 37 °C in a 5% CO2 atmosphere. Live cells were monitored by a 60 × water immersion objective. The fluorescent signal was excited by lasers (405 nm and 561 nm) and the emission was filtered by bandpass filters (BP 445/45 and BP 595/20). All images were post-processed, and Pearson’s and Mander’s coefficients were calculated using the JACoP plugin in Image-J software.

CCRF-CEM = assay: MTS cytotoxicity assay, CCRF-CEM; assay type: cell-based; conditions: Homo sapiens, 72 h, 3-day incubation
From the text: (§1) All cells (if not indicated otherwise) were purchased from the American Tissue Culture Collection (ATCC; Manassas, VA, USA). The highly chemosensitive CCRF-CEM line is derived from T lymphoblastic leukaemia, K562 represent cells of chronic myelogenous leukaemia. Colorectal adenocarcinoma HCT116 cell line and its p53 gene knockout counterpart (HCT116p53−/−, Horizon Discovery Ltd., Cambridge, UK) were used as models to assess the impact of p53 deficiency on cell line sensitivity. A549 cells are derived from lung adenocarcinoma and U2OS from human osteosarcoma. CEM-DNR and K562-Tax are well-characterized daunorubicin and paclitaxel-resistant sublines of CCRF-CEM and K562. The CEM-DNR resistant cells overexpress the P-glycoprotein and LRP protein, the K562-Tax overexpress P-glycoprotein but is losing the expression of LRP, which is present at parental K562 cell line. P-glycoprotein belongs to the ABC transporters’ family and is involved in the primary and acquired multidrug resistance phenomenon by the efflux of toxic compounds, LRP protein is involved in the lysosomal degradation. MRC-5 and BJ cell lines were used as a non-tumour control and represent human fibroblasts. The cells were maintained in Nunc/Corning 80 cm^2 plastic tissue culture flasks and cultured in cell culture medium according to ATCC or Horizon recommendations (DMEM/RPMI 1640 with 5 g/L-glucose, 2 mM glutamine, 100 U/mL penicillin, […] streptomycin, 10% fetal calf serum, and NaHCO3).
(§2) To perform the cytotoxicity MTS assay, cell suspensions were prepared and diluted according to the cell type and the expected target cell density (25,000–35,000 cells/mL) based on cell growth characteristics. Cells were added by an automatic pipettor (30 μL) into 384 well microtiter plates. All tested compounds were dissolved in 100% DMSO and four-fold dilutions of the intended test concentration were added in 0.15 μL aliquots at time zero to the microtiter plate wells by the echo-acoustic liquid handler Echo550 (Labcyte, San Jose, CA, USA). The experiments were performed in technical duplicates and at least three biological replicates. The cells were incubated with the tested compounds for 72 h at 37 °C, in a 5% CO2 atmosphere at 99% humidity. At the end of the incubation period, the cells were assayed by using the MTS test. Aliquots (5 µL) of the MTS stock solution were pipetted into each well and incubated for an additional 1–4 h. After this incubation period, the optical density (OD) was measured at 490 nm with an Envision microplate reader (Perkin Elmer, Waltham, Massachusetts, USA). Tumour cell survival (TCS) was calculated using the following equation: TCS = (ODdrug-exposed well/mean ODcontrol wells) × 100%.

U2OS = assay: MTS cytotoxicity assay, U2OS; assay type: cell-based; conditions: Homo sapiens, 72 h, 3-day incubation
From the text: as §1, §2

CEM-DNR = assay: MTS cytotoxicity assay, CEM-DNR; assay type: cell-based; conditions: Homo sapiens, 72 h, CEM-DNR (daunorubicin resistant), 3-day incubation
From the text: as §1, §2

HCT116 = assay: MTS cytotoxicity assay, HCT116; assay type: cell-based; conditions: Homo sapiens, HCT-116, 72 h, 3-day incubation
From the text: as §1, §2

K562-Tax = assay: MTS cytotoxicity assay, K562-Tax; assay type: cell-based; conditions: Homo sapiens, 72 h, K562-Tax (paclitaxel-resistant), 3-day incubation
From the text: as §1, §2

A549 = assay: MTS cytotoxicity assay, A549; assay type: cell-based; conditions: Homo sapiens, 72 h, 3-day incubation
From the text: as §1, §2

CCRF-CEM lymphoblasts [1] = assay: BrU incorporation analysis (RNA synthesis); assay type: cell-based, human; conditions: 24 h, 5 × IC50 (high concentration)
BJ = assay: MTS cytotoxicity assay, BJ; assay type: cell-based; conditions: Homo sapiens, 72 h, BJ normal fibroblasts, 3-day incubation
From the text: as §1, §2

[2] = tested on: CA-SP1 processing of HIV-1 Gag polyprotein; assay: Western blot of released virions with anti-HIV-1 CA antibody; assay type: cell-based
in vitro = conditions: human
HCT116p53−/− = assay: MTS cytotoxicity assay, HCT116p53−/−; assay type: cell-based; conditions: Homo sapiens, HCT116-p53-null, 72 h, HCT116p53−/− (null p53 gene), 3-day incubation
From the text: as §1, §2

K562 = assay: MTS cytotoxicity assay, K562; assay type: cell-based; conditions: Homo sapiens, 72 h, 3-day incubation
From the text: as §1, §2

MRC-5 = assay: MTS cytotoxicity assay, MRC-5; assay type: cell-based; conditions: Homo sapiens, MRC5, 72 h, MRC-5 normal fibroblasts, 3-day incubation
From the text: as §1, §2

CCRF-CEM lymphoblasts [3] = assay: BrDU incorporation analysis (DNA synthesis); assay type: cell-based, human; conditions: 24 h incubation
Procedure: Cells were cultivated as in the method above and pulse-labelled with 10 μM 5-bromo-2-deoxyuridine (BrDU) for 30 min before collection to the test tubes. The cells were washed with cold 1 × PBS and fixed in ice-cold 70% ethanol. Before analysis, they were washed with 1 × PBS and incubated in 2M HCl for 30 min at room temperature. Following neutralization with 0.1M Na2B4O7 (borax), the cells were washed with 0.5% Tween-20 and 1% BSA in 1 × PBS. The cell pellets were stained using a primary anti-BrdU antibody (Exbio, Vestec, Czech Republic) for 30 min at room temperature and a secondary anti-mouse-FITC antibody (Sigma). The samples were then incubated with propidium iodide (0.1 mg mL^−1), treated with RNase A (0.5 mg mL^−1) for 1 h at room temperature in the dark and analysed as above.

[4] = tested on: VSV-G pseudotyped HIV-1 particles; assay: microbe, parasite or virus in culture; assay type: cell-based; conditions: read-out: IC50i (50% infection inhibition)
[5] = Human immunodeficiency virus 1, HEK293, 48 h

SMILES | detection in living cells (U2OS-Nuc cell line) | pIC50 (CCRF-CEM) | pIC50 (U2OS) | pIC50 (CEM-DNR) | pIC50 (HCT116) | cytotoxic effect in the cell line panel (in words) (entire cell line panel) | pIC50 (K562-Tax) | pIC50 (A549) | RNA synthesis by BrU (in words) (CCRF-CEM lymphoblasts [1]) | pIC50 (BJ) | CA forms identified in released viruses (CA-SP1 processing) [2] | pIC50 (in vitro) | pIC50 (HCT116p53−/−) | pIC50 (K562) | pIC50 (MRC-5) | fraction of proliferating BrDU positive CCRF-CEM cells (in words) (CCRF-CEM lymphoblasts [3]) | pIC50 [4, 5] | pIC50 [4]
O=C(O)CCNC1=C2C=CC=[N+]2[B-](F)(F)n2cccc21 [BODIPY-CO2H, 8-N-(β-Alanyl)amino-4,4-difluoro-4-bora-3a,4a-diaza-s-indacene] | not detected |  |  |  |  |  |  |  |  |  |  |  |  |  |  |  |  | 
C=C(C)[C@@H]1CC[C@]2(C(=O)NCCCNC(=O)OC(C)(C)C)CC[C@]3(C)[C@H](CC[C@@H]4[C@@]5(C)CC[C@H](OC(=O)CC(C)(C)C(=O)O)C(C)(C)[C@@H]5CC[C@]43C)[C@@H]12 [Compound 8, 4-{[(3β)-28-({3-[(Tert-butoxycarbonyl)amino]propyl}amino)-28-oxolup-20(29)-ene-3--yl]oxy}-2,2-dimethyl-4-oxobutanoic acid] |  | 5.09 | 4.77 | 5.03 | 4.88 | medium cytotoxicity | 4.88 | 4.72 | stalled RNA synthesis | 4.67 | not only fully processed p24 CA, but also p25 CA-SP1 protein | 4.42 | 4.67 | 4.72 | 4.64 | reduced the fraction of proliferating BrDU positive CCRF-CEM cells |  | 
C=C(C)[C@@H]1CC[C@]2(C(=O)NCCCNC3=C4C=CC=[N+]4[B-](F)(F)n4cccc43)CC[C@]3(C)[C@H](CC[C@@H]4[C@@]5(C)CC[C@H](OC(=O)CC(C)(C)C(=O)O)C(C)(C)[C@@H]5CC[C@]43C)[C@@H]12 [Compound 10, 4-{[(3β)-28-{[N-(4,4-Difluoro-4-bora-3a,4a-diaza-s-indacene-8-yl)-3-aminopropyl]amino}-28-oxolup-20(29)-ene-3-yl]oxy}-2,2-dimethyl-4-oxobutanoic acid] |  | 5.53 | 4.91 | 5.15 | 5.10 | medium cytotoxicity | 4.91 | 4.87 | stalled RNA synthesis | 4.81 | not only fully processed p24 CA, but also p25 CA-SP1 protein | < 4.40 | 5.06 | 4.63 | 4.85 | reduced the fraction of proliferating BrDU positive CCRF-CEM cells | > 5.00 | 5.08
C=C(C)[C@@H]1CC[C@]2(C(=O)N3CCN(CCN)CC3)CC[C@]3(C)[C@H](CC[C@@H]4[C@@]5(C)CC[C@H](OC(=O)CC(C)(C)C(=O)O)C(C)(C)[C@@H]5CC[C@]43C)[C@@H]12 [Compound 17, 4-{[(3β)-28-[4-(2-Aminoethyl)piperazine-1-yl]-28-oxolup-20(29)-ene-3-yl]oxy}-2,2-dimethyl-4-oxobutanoic acid hydrochloride] |  | 5.24 | 4.35 | < 4.30 | < 4.30 | inactive | < 4.30 | < 4.30 | stalled RNA synthesis | < 4.30 | not only fully processed p24 CA, but also p25 CA-SP1 protein | < 4.40 | < 4.30 | < 4.30 | < 4.30 |  | > 5.00 | 5.12
C=C(C)[C@@H]1CC[C@]2(C(=O)N3CCN(CCNC4=C5C=CC=[N+]5[B-](F)(F)n5cccc54)CC3)CC[C@]3(C)[C@H](CC[C@@H]4[C@@]5(C)CC[C@H](OC(=O)CC(C)(C)C(=O)O)C(C)(C)[C@@H]5CC[C@]43C)[C@@H]12 [Compound 18, 4-{[(3β)-28-{4-[N-(4,4-Difluoro-4-bora-3a,4a-diaza-s-indacene-8-yl)-2-aminoethyl]piperazine-1-yl}-28-oxolup-20(29)-ene-3-yl]oxy}-2,2-dimethyl-4-oxobutanoic acid] |  | 5.06 | < 4.30 | < 4.30 | 4.51 | inactive | < 4.30 | 4.32 | increased the percentage of BrU positive cells | < 4.30 | not only fully processed p24 CA, but also p25 CA-SP1 protein | < 4.40 | 4.34 | < 4.30 | < 4.30 | increased the percentage of cells incorporating BrDU | > 5.00 | 5.15
